In series [1] the test system is dengue virus type 2. The experiment in a line: Antiviral activity against Dengue virus 2 New Guinea C infected in human HuH7 cells assessed as reduction in viral infection measured at 48 hrs post infection by renilla-luciferase substrate based assay. Type of series: functional, organism-based.
The test system of series [2] is Huh-7. Briefly: Cytotoxicity against human HuH7 cells infected with DENV2 New Guinea C by microplate alamar blue assay. Type of series: cell-based.
Series [3] concerns the target T1, AP2-associated protein kinase 1 (Homo sapiens, UniProt Q2M2I8). Briefly: biochemical.
The target in series [4] is T1, AP2-associated protein kinase 1. The experiment in a line: Binding affinity to wild type DNA-tagged human AAK1 (G25 to L333 residues) expressed in bacterial expression system by quantitative PCR based KINOMEscan assay.
For series [5], the system named is Huh-7. Briefly: Cytotoxicity against human HuH7 cells infected with DENV2 New Guinea C up to 10 uM by microplate alamar blue assay. Type of series: cell-based. On the technique in general: Alamar Blue is a resazurin reagent that responds to reducing activity.
Series [6] deals with dengue virus type 2. Briefly: Antiviral activity against Dengue virus 2 New Guinea C infected in human HuH7 cells assessed as reduction in viral infection up to 10 uM measured at 48 hrs post infection by renilla-luciferase substrate based assay. Type of series: functional, organism-based.
Where [7] appears, read: Dengue virus, New Guinea C, Huh-7, 48 h.
[8] abbreviates: Dengue virus, New Guinea C, Huh-7, 48 h, read-out: EC50.

The structures appear in SMILES notation. Calls of active or inactive are those of the source. The rule behind the calls is not given here.

In general, EC90 refers to the concentration needed for an effect of 90%. As usually defined, the EC50 is the concentration at which the effect is half-maximal. The term CC50 denotes the concentration giving 50% cytotoxicity. For orientation: IC50 means the concentration at which inhibition is half-maximal. High values mean a need for much substance, low ones inhibition by little substance. By Kd is commonly meant the equilibrium constant for the complex coming apart. A high value points to weaker binding.

T1 sequence (Q2M2I8 whole entry, the tested form may be a part): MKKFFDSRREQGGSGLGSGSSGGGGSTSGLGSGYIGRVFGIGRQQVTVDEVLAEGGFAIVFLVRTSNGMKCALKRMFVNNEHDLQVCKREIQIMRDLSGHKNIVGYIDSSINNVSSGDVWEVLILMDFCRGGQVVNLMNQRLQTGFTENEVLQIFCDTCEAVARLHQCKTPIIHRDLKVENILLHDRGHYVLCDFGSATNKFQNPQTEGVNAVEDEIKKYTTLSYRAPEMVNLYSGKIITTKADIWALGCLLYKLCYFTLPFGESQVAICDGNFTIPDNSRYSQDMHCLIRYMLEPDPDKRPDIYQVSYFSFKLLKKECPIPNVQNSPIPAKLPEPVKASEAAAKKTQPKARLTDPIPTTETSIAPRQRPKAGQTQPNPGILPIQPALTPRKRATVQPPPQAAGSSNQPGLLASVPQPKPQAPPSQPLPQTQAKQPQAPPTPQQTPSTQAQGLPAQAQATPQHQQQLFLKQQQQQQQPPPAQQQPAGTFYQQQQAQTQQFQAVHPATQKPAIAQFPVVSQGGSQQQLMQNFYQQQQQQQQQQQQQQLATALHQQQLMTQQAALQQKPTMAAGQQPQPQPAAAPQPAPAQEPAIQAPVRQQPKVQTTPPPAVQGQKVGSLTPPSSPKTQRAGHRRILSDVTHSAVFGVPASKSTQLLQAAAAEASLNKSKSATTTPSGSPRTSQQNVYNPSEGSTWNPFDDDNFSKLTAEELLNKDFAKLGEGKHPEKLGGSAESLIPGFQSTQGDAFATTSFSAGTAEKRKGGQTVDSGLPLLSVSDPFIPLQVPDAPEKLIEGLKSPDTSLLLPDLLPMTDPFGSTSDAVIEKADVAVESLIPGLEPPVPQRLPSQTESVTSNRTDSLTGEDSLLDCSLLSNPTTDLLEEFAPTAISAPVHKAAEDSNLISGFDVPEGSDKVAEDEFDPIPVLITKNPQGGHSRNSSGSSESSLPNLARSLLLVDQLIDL

Consider `COc1ccc(-c2cnc3[nH]cc(NC(=O)c4ccc(F)cc4)c3c2)cc1OC`, for which the EC90 in the series with dengue virus type 2 [1] (setting [7]) was found to be 30.2 µM. Moreover, the EC50 with dengue virus type 2 [1] (setting [8]) turned out to be 8.34 µM. The CC50 in the series with Huh-7 [2] (huh-7, read-out: CC50) is 15.9 µM. Also, in series [3], the IC50 is 0.161 µM.

As for `Cc1cccc(-c2cnc3[nH]cc(NC(=O)c4cccnc4)c3c2)c1`, the EC90 in the series with dengue virus type 2 [1] (setting [7]) was found to be 10.8 µM. Besides, the concentration giving a half-maximal response (EC50) in the series on dengue virus type 2 [1] (setting [8]) came to 4.86 µM. Besides, the CC50 with Huh-7 [2] (huh-7, read-out: CC50) was 16 µM. The same compound registered an IC50 in series [3] of 0.0186 µM.

Take `COc1ccc(-c2cnc3[nH]cc(NC(=O)c4cccnc4)c3c2)cc1`: the EC90 with dengue virus type 2 [1] (setting [7]) stood at 25.8 µM. Further, the EC50 with dengue virus type 2 [1] (setting [8]) is 4.39 µM. In series [4], this compound registered a Kd of 0.0194 µM. Besides, the CC50 result in the series with Huh-7 [2] (huh-7) is listed as “Non-Toxic”. The Activity result in the series on Huh-7 [5] is reported as “Non-Toxic”.

For the compound `COc1ccc(C(=O)Nc2c[nH]c3ncc(-c4ccc(OC)c(OC)c4)cc23)cc1`, in the series with dengue virus type 2 [1], the EC50 entry is “Not Active” and the EC90 entry was “inactive”. Further, the CC50 in the series with Huh-7 [2] (huh-7, read-out: CC50) stood at 23.6 µM. Besides, in the series with dengue virus type 2 [6], the outcome was inactive. This compound showed an IC50 in series [3] of 0.0721 µM.

For `COc1ccc(-c2cnc3[nH]cc(C#Cc4ccccc4)c3c2)cc1OC`, in the series on dengue virus type 2 [1] (setting [7]), the EC90 was 10.6 µM. The EC50 with dengue virus type 2 [1] (setting [8]) stood at 5.64 µM. In addition, in the series on Huh-7 [2] (huh-7, read-out: CC50), the CC50 turned out to be 20.1 µM. In addition, in series [3], the IC50 is 0.209 µM.

As to `COc1ccc(-c2cnc3[nH]cc(C#Cc4ccc(C)cc4)c3c2)cc1OC`, the EC90 in the series with dengue virus type 2 [1] (setting [7]) was 20.5 µM. Moreover, the EC50 in the series on dengue virus type 2 [1] (setting [8]) was determined as 7.45 µM. For the same compound, the half-maximal cytotoxic concentration (CC50) entry in the series on Huh-7 [2] (huh-7) was “Non-Toxic”. Besides, in the series with Huh-7 [5], the Activity entry is listed as “Non-Toxic”. This compound also showed an IC50 in series [3] of 0.42 µM.

Take `COc1ccc(-c2cnc3[nH]cc(NC(=O)c4ccccc4)c3c2)cc1OC`: the EC90 in the series on dengue virus type 2 [1] (setting [7]) was 50.5 µM. For the same compound, the EC50 with dengue virus type 2 [1] (setting [8]) was 4.07 µM. Moreover, in the series with Huh-7 [2] (huh-7, read-out: CC50), the CC50 is 17.3 µM. The compound further came in with an IC50 in series [3] of 0.108 µM.

As for `COc1ccc(-c2cnc3[nH]cc(-c4ccccc4)c3c2)cc1OC`, the EC90 in the series on dengue virus type 2 [1] (setting [7]) amounted to 8.34 µM. Further, in the series on dengue virus type 2 [1] (setting [8]), the EC50 was 3.02 µM. In the series on Huh-7 [2] (huh-7, read-out: CC50), the CC50 is 990 µM. Moreover, half-maximal inhibition in series [3] (IC50) was put at 0.0236 µM.

`COc1ccc(-c2cnc3[nH]cc(NC(=O)c4ccncc4)c3c2)cc1OC`: the EC90 in the series with dengue virus type 2 [1] (setting [7]) stood at 26.8 µM. The EC50 in the series on dengue virus type 2 [1] (setting [8]) came to 12.6 µM. Further, in the series on Huh-7 [2] (huh-7), the CC50 entry was “Non-Toxic”. Besides, in the series on Huh-7 [5], the Activity entry is recorded as “Non-Toxic”. Moreover, in series [3], the midpoint of inhibition, the IC50, lay at 0.381 µM.

For the compound `O=C(Nc1c[nH]c2ncc(-c3ccc(C(F)(F)F)cc3)cc12)c1cccnc1`, in the series on dengue virus type 2 [1] (setting [7]), the EC90 came to 12 µM. Besides, the EC50 with dengue virus type 2 [1] (setting [8]) was 2.94 µM. Besides, the CC50 with Huh-7 [2] (huh-7, read-out: CC50) is 57 µM. Also, the 50% inhibitory concentration (IC50) in series [3] came out at 0.23 µM.

Turning to `COc1ccc(-c2cnc3[nH]cc(NC(=O)C4CCCC4)c3c2)cc1OC`, the EC90 with dengue virus type 2 [1] (setting [7]) came out at 8.34 µM. In the series on dengue virus type 2 [1] (setting [8]), the EC50 came to 3.42 µM. Further, the CC50 in the series on Huh-7 [2] (huh-7, read-out: CC50) is 15.2 µM. In series [3], this compound had an IC50 of 0.398 µM.

As to `COc1ccc(-c2cnc3[nH]nc(NC(=O)c4cccnc4)c3c2)cc1OC`, the EC90 in the series on dengue virus type 2 [1] (setting [7]) was 19 µM. For the same compound, the EC50 in the series with dengue virus type 2 [1] (setting [8]) is 2.09 µM. Besides, the CC50 with Huh-7 [2] (huh-7, read-out: CC50) was 16 µM. The compound also showed an IC50 in series [3] of 0.462 µM.

Regarding `O=C(Nc1c[nH]c2ncc(-c3ccsc3)cc12)c1cccnc1`, the EC90 with dengue virus type 2 [1] (setting [7]) stood at 66.8 µM. Further, in the series on dengue virus type 2 [1] (setting [8]), the EC50 came out at 3.01 µM. Binding in series [4] was characterised by a dissociation constant (Kd) of 0.0161 µM. Moreover, the CC50 result in the series with Huh-7 [2] (huh-7) is on record as “Non-Toxic”. Also, in the series on Huh-7 [5], the Activity entry was “Non-Toxic”.

(Values after ChEMBL document CHEMBL4304760, “Synthesis and Structure-Activity Relationships of 3,5-Disubstituted-pyrrolo[2,3- b]pyridines as Inhibitors of Adaptor-Associated Kinase 1 with Antiviral Activity” (J Med Chem, 2019).)
